Results: PMC10138654, “Structural Insights into M1 Muscarinic Acetylcholine Receptor Signaling Bias between Gαq and β-Arrestin through BRET Assays and Molecular Docking” (International Journal of Molecular Sciences, 2023)
Read-outs that look alike come from different tables or passages of the source.

Assays:
M1mAChR [1] = target: T1, M1mAChR (Homo sapiens, UniProt P11229); experiment: cell-based; settings: for EC50: HEK293T cells
T1 construct: host or cells: HEK-293T
Target sequence in this assay (P50148 whole entry partner, one chain of several): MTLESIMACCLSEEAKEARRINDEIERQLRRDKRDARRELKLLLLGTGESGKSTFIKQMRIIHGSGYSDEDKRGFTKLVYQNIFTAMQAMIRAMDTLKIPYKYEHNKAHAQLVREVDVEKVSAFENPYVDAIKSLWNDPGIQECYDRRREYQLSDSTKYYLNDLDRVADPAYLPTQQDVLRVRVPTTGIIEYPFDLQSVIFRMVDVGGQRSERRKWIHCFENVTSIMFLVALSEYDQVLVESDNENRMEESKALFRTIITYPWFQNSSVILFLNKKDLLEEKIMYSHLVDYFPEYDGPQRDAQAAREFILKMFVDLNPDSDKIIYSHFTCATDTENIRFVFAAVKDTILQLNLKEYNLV
Target sequence in this assay (P62879 2-340 partner limits assumed, one chain of several): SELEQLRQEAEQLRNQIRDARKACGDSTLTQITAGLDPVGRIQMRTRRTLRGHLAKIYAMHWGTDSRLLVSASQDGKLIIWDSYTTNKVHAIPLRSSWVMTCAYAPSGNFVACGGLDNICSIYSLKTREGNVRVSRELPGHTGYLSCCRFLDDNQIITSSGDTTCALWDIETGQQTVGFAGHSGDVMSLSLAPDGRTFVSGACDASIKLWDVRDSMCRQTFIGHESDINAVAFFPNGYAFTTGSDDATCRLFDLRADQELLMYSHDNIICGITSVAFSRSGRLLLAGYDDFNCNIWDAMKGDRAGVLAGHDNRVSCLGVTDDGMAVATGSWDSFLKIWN
Target sequence in this assay (P59768 2-68 partner limits assumed, one chain of several): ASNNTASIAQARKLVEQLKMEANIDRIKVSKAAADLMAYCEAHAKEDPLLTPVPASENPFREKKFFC

M1mAChR [2] = target: T2, M1mAChR (Homo sapiens, UniProt P11229); experiment: cell-based; settings: for EC50: CHO-M1 cells, unit inferred, read-out: EC50, β-arrestin2 recruitment by FRET, printed in Figure 6 panels I-N
T2 sequence (P11229 1-460): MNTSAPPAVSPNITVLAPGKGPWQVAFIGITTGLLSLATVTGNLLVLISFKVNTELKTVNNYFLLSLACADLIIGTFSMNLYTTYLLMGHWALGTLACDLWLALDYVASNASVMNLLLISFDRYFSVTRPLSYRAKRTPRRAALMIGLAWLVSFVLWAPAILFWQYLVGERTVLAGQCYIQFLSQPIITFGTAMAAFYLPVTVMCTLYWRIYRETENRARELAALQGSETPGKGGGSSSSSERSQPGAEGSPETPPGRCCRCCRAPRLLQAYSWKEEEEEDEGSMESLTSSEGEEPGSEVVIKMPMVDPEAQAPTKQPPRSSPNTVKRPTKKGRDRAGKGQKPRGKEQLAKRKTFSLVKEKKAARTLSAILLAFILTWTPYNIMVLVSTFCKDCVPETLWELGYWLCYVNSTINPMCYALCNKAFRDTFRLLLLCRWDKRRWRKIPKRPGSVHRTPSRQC
Protocol: To further analyze the signaling bias of the agonists, a β-arrestin recruitment kit was utilized based on HTRF (Homogeneous Time Resolved Fluorescence, HTRF) technology. The interaction between native β-arrestin2 and AP2 was detected using a Europium cryptate-labeled AP2 (Adaptin2, AP2) antibody (Europium donor) and a d2-labeled β-arrestin2 antibody (acceptor) (Figure 6H).
We used the β-arrestin2 recruitment KIT test (PerkinElmer, Waltham, MA, USA, Cat. No. 62BDBAR2PEB). Following 24 h of incubation, the cell culture medium was removed, and Stimulation Buffer 4 was added to the negative control group and the blank group, while a diluted agonist was added to the agonist group, at a volume of 100 µL for each group. The plates were then sealed and allowed to incubate at room temperature for 15 min. Then, we removed the Stimulation Buffer 4 from the wells and added 30 µL of Stabilization Buffer 1, sealed the plate, and incubated it at room temperature for 15 min. Afterward, Stabilization Buffer 1 was removed, and the wells were washed three times with 100 µL of Wash Buffer 1. Following that, 100 µL of pre-mixed d2 and Eu cryptate antibodies were added to the wells, and the plates were sealed and incubated overnight at room temperature. Finally, the plates were read using an HTRF-compatible reader.

M1mAChR [3] = target: T2, M1mAChR; type: cell-based; settings: calcium assay and commercial β-arrestin recruitment method
M1mAChR [4] = target: T1, M1mAChR; type: cell-based
Protocol: The kinetic response of the agonists to β-arrestin recruitment was analyzed.
The mean response over 100 s before and after the injection of the antagonist was also analyzed.
(§1) Incubate the cells for another 24 h at 37 °C with 5% CO2 until the cell density reaches 70%~80%. To transfect the cells, use expression constructs (total 0.1 μg/well) with a 1:1:1:1 DNA ratio of M1-RLuc8/Gαq/Gβ2/Gγ2-mVenus, or a 1:2 DNA ratio of M1-RLuc8/β-arrestin2-mVenus, and LipofectamineTM 3000 (0.15 µL/well) reagents (Thermo Scientific, Waltham, MA, USA, Cat. No. R25001). Incubate the cells for another 24 h at 37 °C with 5% CO2. […] Then, add 10 µL of freshly prepared luciferase substrate (here, Coelenterazine h was added at a final concentration of 5 μM, Hangzi Biotechnology, Shanghai, China) and mix the solution.
Target sequence in this assay (P32121 whole entry partner, one chain of several): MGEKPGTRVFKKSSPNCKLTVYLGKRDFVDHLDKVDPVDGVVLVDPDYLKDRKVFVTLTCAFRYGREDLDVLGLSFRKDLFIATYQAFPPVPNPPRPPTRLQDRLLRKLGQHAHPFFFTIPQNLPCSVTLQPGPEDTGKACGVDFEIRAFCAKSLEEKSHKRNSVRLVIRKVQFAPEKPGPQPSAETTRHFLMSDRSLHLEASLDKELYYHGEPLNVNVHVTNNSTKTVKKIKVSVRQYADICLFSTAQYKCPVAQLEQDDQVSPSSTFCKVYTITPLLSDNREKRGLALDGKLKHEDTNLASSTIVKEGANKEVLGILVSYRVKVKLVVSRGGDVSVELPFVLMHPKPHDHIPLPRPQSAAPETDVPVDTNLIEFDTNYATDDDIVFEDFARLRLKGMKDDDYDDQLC

M1mAChR [5] = target: T1, M1mAChR; experiment: cell-based
Target sequence in this assay (P32121 whole entry partner, one chain of several): as above

muscarinic = system: muscarinic; parameters: method as in PMID 22948826; settings: times more potent than ACh; cited from earlier work
M1mAChR [6] = target: T2, M1mAChR; experiment: cell-based; settings: for EC50: CHO-M1 cells, unit inferred, read-out: EC50, Fluo4-AM calcium, printed in Figure 6 panels B-G
Protocol: The M1mAChR receptor primarily couples with Gαq, which connects it to several signaling pathways, such as PLC (phospholipase C, PLC), IP3 (inositol triphosphate, IP3), DAG (diacylglycerol, DAG), PKC (protein kinase C, PKC), and calcium signaling. Additionally, the Gαq-PLC signaling pathway plays a role in the activation of cAMP ([…], cAMP) via IP3-calcium release and calmodulin [9].
The influx of intracellular calcium was determined using Fluo4-AM (DOJINDO, Tonomachi, Japan, Cat. No.F311). CHO-M1 cells were seeded on 96-well plates at a density of 40,000 cells/well. The cells were treated with 5 µM of Fluo4-AM in 5 mM of CaCl2 buffer and incubated for 30 min at 37 °C in complete darkness.

M1mAChR [7] = target: T2, M1mAChR; type: cell-based; settings: BRET assays
Protocol: The potencies and efficacies of Gαq and β-arrestin2 were verified using BRET assays, as well as commercial methods, to monitor G protein binding and β-arrestin recruitment (refer to Figure 7). […] The BRET concentration–response curves were analyzed by either conducting normalization to a reference agonist for each experiment or by analyzing them as raw net BRET (fit Emax-fit baseline). The EC50 and Emax values were estimated by fitting all biological replicates simultaneously. […] To estimate the putative signaling bias between the Gαq and β-arrestin pathways, the ΔΔlog(τ/KA) method was used, based on the following equation: bias = 10^ΔΔlog(τ/KA) Gαq−β-arrestin [46], which is derived from the RAi equation [29]. Here, ΔΔlog (τ/KA) Gαq−β-arrestin = Δlog(τ/KA) Gαq − Δlog(τ/KA) β-arrestin. For all statistically analyzed studies, the experiments were performed at least three times independently. The experiments were carried out in a randomized manner. The results are presented as the mean ± SEM. Statistical analysis was performed with a one-way analysis of variance (ANOVA). A value of p < 0.05 was considered statistically significant.

M1mAChR [8] = target: T1, M1mAChR; type: cell-based; settings: Scopolamine 100 μM; agonist 1 μM (Pilocarpine 300 μM); mean response 100 s before vs after antagonist
Protocol: as §1
Target sequence in this assay (P50148 whole entry partner, one chain of several): as the sequence (P50148 whole entry partner, one chain of several) above
Target sequence in this assay (P62879 2-340 partner limits assumed, one chain of several): as the sequence (P62879 2-340 partner limits assumed, one chain of several) above
Target sequence in this assay (P59768 2-68 partner limits assumed, one chain of several): as the sequence (P59768 2-68 partner limits assumed, one chain of several) above

[9] = dose-response curve, unit inferred, read-out: EC50, Gαq interaction with M1mAChR (BRET), in Figure 2 panels
[10] = read-out: EC50, Gαq binding to M1mAChR (BRET)
[11] = relative intrinsic activity, relative to ACh
[12] = dose-response curve, unit inferred, read-out: EC50, β-arrestin2 interaction with M1mAChR (BRET), Figure 4
[13] = read-out: EC50, β-arrestin2 binding to M1mAChR (BRET)

Structure (SMILES) | EC50 (M1mAChR [1]; [9]) | EC50 (M1mAChR [1]; [10]) | Gαq (BRET) (Δlog (τ/KA)) (M1mAChR [1]; [11]) | EC50 (M1mAChR [2]) | β-Arrestin (FRET) (Δlog (τ/KA)) (M1mAChR [2]; [11]) | signaling bias by commercial methods (M1mAChR [3]) | decrease of agonist-induced β-arrestin2 BRET response by Atropine (M1mAChR [4]) | decrease of agonist-induced β-arrestin2 BRET response by Scopolamine (M1mAChR [4]) | EC50 (M1mAChR [5]; [12]) | EC50 (M1mAChR [5]; [13]) | β-Arrestin (BRET) (Δlog (τ/KA)) (M1mAChR [5]; [11]) | potency relative to ACh (muscarinic) | EC50 (M1mAChR [6]) | Gαq (Fluo4-AM) (Δlog (τ/KA)) (M1mAChR [6]; [11]) | ∆∆RAi (Gαq − β-arrestin2) (M1mAChR [7]) | bias factor (Gαq vs β-arrestin2) (M1mAChR [7]; bias = 10^ΔΔlog(τ/KA) Gαq−β-arrestin, relative to ACh) | decrease of agonist-induced Gαq BRET response by Scopolamine (M1mAChR [8])
C[N+](C)(C)CC#CCOC1=NOCC1 [Iperoxo] | 24.8 nM | 24.8 nM | 1.56 ± 0.090 | 646 nM | −0.03 ± 0.040 | predominantly biased towards Gαq | 60% | 54% | 72 nM | 72 nM | 1.27 ± 0.020 | approximately 100 times | 12.5 nM | 0.98 ± 0.003 | 0.3 | 2 | approximately 41%
C[N+](C)(C)CC#CCOC(=O)Nc1cccc(Cl)c1 [McN-A-343] | 11.1 nM | 11 nM |  | 1550 nM |  |  |  |  | 981 nM | 980 nM |  |  | 718 nM |  |  |  | 
